From ChEMBL document CHEMBL1133044, “Nonpeptide GPIIB/IIIA receptor antagonists. Part 21: C-6 flexibility and amide bond orientation are important factors in determining the affinity of compounds for activated or resting platelet receptors” (Bioorg Med Chem Lett, 2000) come the findings set out here.

Assay [1] addresses T1, Integrin alpha-IIb/beta-3 (Homo sapiens, UniProt P05106+P08514). The assay is described as follows: Competition with [1251]L-692,884 for binding to purified alpha IIb/beta3 integrin, activated by coating onto yttrium silicate scintillation proximity assay fluomicrospheres. In kind it is protein-complex assay.
Target sequence in this assay (P05106 27-788 limits assumed): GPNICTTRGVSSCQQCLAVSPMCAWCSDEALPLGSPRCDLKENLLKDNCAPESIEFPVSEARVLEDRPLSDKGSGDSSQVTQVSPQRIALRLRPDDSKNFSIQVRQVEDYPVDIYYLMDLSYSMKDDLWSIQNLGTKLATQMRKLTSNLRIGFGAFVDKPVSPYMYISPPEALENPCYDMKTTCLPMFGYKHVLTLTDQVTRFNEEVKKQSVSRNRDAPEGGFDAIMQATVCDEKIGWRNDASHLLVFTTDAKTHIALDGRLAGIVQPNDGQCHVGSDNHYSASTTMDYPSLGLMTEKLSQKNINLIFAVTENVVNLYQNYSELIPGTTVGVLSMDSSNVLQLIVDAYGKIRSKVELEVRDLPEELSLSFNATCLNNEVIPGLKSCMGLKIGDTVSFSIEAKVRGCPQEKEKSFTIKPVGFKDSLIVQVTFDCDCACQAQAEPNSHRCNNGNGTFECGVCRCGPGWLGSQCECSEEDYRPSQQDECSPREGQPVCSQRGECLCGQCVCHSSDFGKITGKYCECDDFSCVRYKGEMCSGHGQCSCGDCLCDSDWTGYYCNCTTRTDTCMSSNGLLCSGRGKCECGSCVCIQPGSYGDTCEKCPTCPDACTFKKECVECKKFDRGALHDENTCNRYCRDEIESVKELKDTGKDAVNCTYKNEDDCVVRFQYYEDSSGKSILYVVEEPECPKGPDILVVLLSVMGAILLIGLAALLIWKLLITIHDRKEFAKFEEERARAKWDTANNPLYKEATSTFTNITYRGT
Target sequence in this assay (P08514 32-887 limits assumed): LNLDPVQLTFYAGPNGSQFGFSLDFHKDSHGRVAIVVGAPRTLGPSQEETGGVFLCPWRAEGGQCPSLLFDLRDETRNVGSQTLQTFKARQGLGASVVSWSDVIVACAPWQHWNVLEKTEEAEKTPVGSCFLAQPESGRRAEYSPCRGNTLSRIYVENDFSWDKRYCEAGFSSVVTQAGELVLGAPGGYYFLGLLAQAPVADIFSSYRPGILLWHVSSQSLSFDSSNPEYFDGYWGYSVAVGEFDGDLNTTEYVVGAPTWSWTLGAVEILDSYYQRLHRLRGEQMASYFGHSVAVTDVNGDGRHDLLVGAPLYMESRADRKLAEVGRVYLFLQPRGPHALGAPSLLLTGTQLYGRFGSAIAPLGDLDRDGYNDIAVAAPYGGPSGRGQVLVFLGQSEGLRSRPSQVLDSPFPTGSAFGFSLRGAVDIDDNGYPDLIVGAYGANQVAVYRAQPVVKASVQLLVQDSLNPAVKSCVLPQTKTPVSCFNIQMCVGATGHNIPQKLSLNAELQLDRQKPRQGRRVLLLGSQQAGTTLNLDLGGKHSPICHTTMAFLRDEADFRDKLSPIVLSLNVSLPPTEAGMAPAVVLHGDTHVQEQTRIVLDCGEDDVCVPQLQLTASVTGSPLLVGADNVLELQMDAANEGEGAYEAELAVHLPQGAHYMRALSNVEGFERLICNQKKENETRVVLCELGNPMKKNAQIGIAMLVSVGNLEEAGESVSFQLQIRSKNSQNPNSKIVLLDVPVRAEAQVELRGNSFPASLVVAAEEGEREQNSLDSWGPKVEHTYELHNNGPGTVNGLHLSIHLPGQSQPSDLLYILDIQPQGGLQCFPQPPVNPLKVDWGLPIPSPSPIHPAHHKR
Target sequence in this assay (P08514 891-1039 limits assumed): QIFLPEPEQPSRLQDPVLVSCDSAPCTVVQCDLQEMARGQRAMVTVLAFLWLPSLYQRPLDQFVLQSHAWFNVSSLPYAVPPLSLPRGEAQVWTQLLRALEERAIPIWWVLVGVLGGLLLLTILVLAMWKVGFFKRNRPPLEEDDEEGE
Assay [2] deals with T1, Integrin alpha-IIb/beta-3. The experiment in a line: Binding affinity to resting form of alpha IIb/beta3 integrin by flow cytometry using fluorescein ligand L-726,745 displacement from human platelets. (In general: A flow cytometer gives signals particle by particle.)
Target sequence in this assay (P05106 27-788 limits assumed): as the sequence (P05106 27-788 limits assumed) above
Target sequence in this assay (P08514 32-887 limits assumed): as the sequence (P08514 32-887 limits assumed) above
Target sequence in this assay (P08514 891-1039 limits assumed): as the sequence (P08514 891-1039 limits assumed) above
The target in assay [3] is T1, Integrin alpha-IIb/beta-3. The assay is described as follows: Selectivity as determined by the ratio of KDs, resting receptor over activated receptor. In kind it is protein-complex assay.
Assay [4] can be described thus: Inhibition of aggregation of human gel-filtered platelets measured by light transmittance method at 37 degrees C.

What is called Kd is the equilibrium constant for the complex coming apart. Low values mean tighter binding, high ones weaker binding. On to `O=C(O)C[C@@H](CO)NC(=O)CN1CCc2ccc(N3CCNCC3)cc2C1=O`, for which the Kd in assay [1] is 15 nM; in assay [2], above 1000 nM. Besides, the Selectivity in assay [3] was above 67.
For orientation: IC50 means the concentration at which inhibition is half-maximal. Take `O=C(O)CCNC(=O)c1ccc2c(c1)C(=O)N(CCC1CCNCC1)C2`: the dissociation constant (Kd) in assay [1] was 13 nM; in assay [2] it was 120 nM. In addition, the IC50 in assay [4] was determined as 27 nM. Also, the Selectivity in assay [3] was 9.
With `C#C[C@H](CC(=O)O)NC(=O)C[C@H]1CCCN(CCc2ccnc(N)c2)C1=O`, the Kd in assay [1] was found to be 0.26 nM; in assay [2], 60 nM. Further, the Selectivity in assay [3] stood at 230.
`C#C[C@H](CC(=O)O)NC(=O)CN1CCC[C@@H](CCc2ccnc(N)c2)C1=O`: the Kd in assay [1] amounted to 0.78 nM; in assay [2] it was 340 nM. Moreover, the Selectivity in assay [3] is 435.
Regarding `O=C(CN1CCc2ccc(N3CCNCC3)cc2C1=O)NC[C@H](NS(=O)(=O)c1ccccc1)C(=O)O`, the values for the Kd in assay [1] and in assay [2] were 6.7 nM and 13 nM, respectively. The Selectivity in assay [3] amounted to 1.9.
Regarding `Cc1ccc(S(=O)(=O)N[C@@H](CNC(=O)c2cc3n(n2)CCCN(CCC2CCNCC2)C3=O)C(=O)O)cc1`, binding in assay [1] was put at a Kd of 0.08 nM. The Selectivity in assay [3] turned out to be 18.
Turning to `O=C(O)C[C@@H](CO)NC(=O)c1ccc2c(c1)C(=O)N(CCC1CCNCC1)C2`, the Kd stood at 21 nM in assay [1] and 47 nM in assay [2]. In addition, the Selectivity in assay [3] came to 2.
In the case of `O=C(O)C[C@H](NC(=O)CN1CCc2ccc(N3CCNCC3)cc2C1=O)c1cccnc1`, the values for the Kd in assay [1] and in assay [2] were 0.25 nM and 3.4 nM, respectively. Besides, in assay [3], the Selectivity was 14.
As to `O=C(O)C[C@H](NC(=O)C[C@H]1CCCN(CCC2CCNCC2)C1=O)c1cccnc1`, the Kd came out at 0.3 nM in assay [1] and 11 nM in assay [2]. Also, the Selectivity in assay [3] came out at 37.
For the compound `O=C(NC[C@H](NS(=O)(=O)c1ccccc1)C(=O)O)c1cc2cc(CCC3CCNCC3)sc2s1`, the Kd in assay [1] worked out at 0.09 nM; in assay [2], 2.1 nM. This compound had an IC50 in assay [4] of 8 nM. Further, the Selectivity in assay [3] is 23.
Turning to `C#CC(CC(=O)O)NC(=O)CN(C(=O)c1cccc(C2CCNCC2)c1)C1CC1` (stereo unspecified), the Kd was determined as 0.85 nM in assay [1] and 120 nM in assay [2]. Besides, the Selectivity in assay [3] stood at 141.
As to `O=C(NC[C@H](NS(=O)(=O)c1ccccc1)C(=O)O)c1ccc(OCCC2CCNCC2)cc1`, the Kd came out at 0.16 nM in assay [1] and 2.4 nM in assay [2]. Further, the Selectivity in assay [3] turned out to be 15.
The corresponding values for `C#C[C@H](CC(=O)O)NC(=O)CN1CCC[C@@H](CCC2CCNCC2)C1=O` are 0.86 nM, 210 nM and 244.
Consider `C#C[C@H](CC(=O)O)NC(=O)c1ccc2c(c1)C(=O)N(CCc1ccnc(N)c1)C2`, for which the values for the Kd in assay [1] and in assay [2] were 2.2 nM and 84 nM, respectively. Also, in assay [3], the Selectivity came out at 38.
As for `C#CC(CCCN1CCC[C@@H](CCC2CCNCC2)C1=O)CC(=O)O` (stereo partly specified), the figures for the Kd in assay [1] and in assay [2] were 9 nM and 3100 nM, respectively. In addition, the Selectivity in assay [3] was determined as 344.
Consider `C[C@H](CC(=O)O)NC(=O)CN1CCC[C@@H](CCC2CCNCC2)C1=O`, for which, in assay [2], binding was characterised by a dissociation constant (Kd) of 640 nM. Moreover, the Selectivity in assay [3] is 140.
With `C#C[C@H](CC(=O)O)NC(=O)C[C@H]1CCCN(CCC2CCNCC2)C1=O`, the Kd was determined as 0.34 nM in assay [1] and 6.1 nM in assay [2]. Also, in assay [3], the Selectivity is 18.
With `O=C(O)C[C@H](NC(=O)CN1CCC[C@@H](CCC2CCNCC2)C1=O)c1cccnc1`, the Kd turned out to be 0.38 nM in assay [1] and 84 nM in assay [2]. Further, the Selectivity in assay [3] was found to be 221.
Regarding `CC(CC(=O)O)NC(=O)c1ccc2c(c1)C(=O)N(CCC1CCNCC1)C2` (stereo unspecified), the values for the Kd in assay [1] and in assay [2] were 64 nM and 49 nM, respectively. In addition, the Selectivity in assay [3] was found to be 0.8.
The corresponding values for `O=C(NC[C@H](NS(=O)(=O)c1ccccc1)C(=O)O)c1ccc2c(c1)C(=O)N(CCC1CCNCC1)C2` are 0.25 nM, 3.1 nM and 12.
On the same counts, the results for `O=C(NC[C@H](NS(=O)(=O)c1ccccc1)C(=O)O)c1cc2cc(OCCC3CCNCC3)ccc2[nH]1` are 0.056 nM, 1.3 nM and 24.
The compound `O=C(O)CCNC(=O)CN1CCc2ccc(N3CCNCC3)cc2C1=O` showed a Kd in assay [1] of 9.7 nM.
On to `O=C(CN1CCC[C@@H](CCC2CCNCC2)C1=O)NC[C@H](NS(=O)(=O)c1ccccc1)C(=O)O`, for which the Kd in assay [1] came out at 0.78 nM; in assay [2] it was 15 nM. In assay [3], the Selectivity was determined as 19.
For the compound `C#C[C@H](CC(=O)O)NC(=O)CN1CCc2ccc(N3CCNCC3)cc2C1=O`, the Kd in assay [1] was determined as 0.56 nM; in assay [2], 50 nM. For the same compound, the Selectivity in assay [3] was determined as 89.
In assay [1], `O=C(O)CCNC(=O)c1cc2n(n1)CCCN(CCC1CCNCC1)C2=O` had a Kd of 46 nM. In assay [4], this compound had a 50% inhibitory concentration (IC50) of 470 nM. Further, the Selectivity in assay [3] was found to be 14.
As for `C[C@@H](/C=C/CN1CCC[C@@H](CCC2CCNCC2)C1=O)CC(=O)O`, the Kd in assay [1] amounted to 12 nM; in assay [2], 2300 nM. The Selectivity in assay [3] was 192.
